Consider 1 molecule from the NIST ThermoML archive (doi:10.1016/j.jct.2019.06.018).

± gives the expanded uncertainty stated by the source.

Data set [1] in a line: Molar enthalpy of transition or fusion. To be noted: Crystal; DSC.
For data set [2] the following is noted: Crystal; DSC.

Regarding `CC1=NN(c2ccccc2)C(=O)C1` [Edaravone], the “Molar enthalpy of transition or fusion” value in data set [1] was found to be 7.08 ± 0.956 kcal/mol. Further, the Triple point temperature in data set [2] is recorded as 400.15 ± 1.2 K.
